Tests used:
[1] = target: T1, Interleukin-1 receptor-associated kinase 3 (Homo sapiens) (UniProt Q9Y616); assay: Selectivity interaction (KinomeScan (DiscoverX)) EUB0001619a IRAK3; conditions: at 1 µM
T1 sequence (whole entry): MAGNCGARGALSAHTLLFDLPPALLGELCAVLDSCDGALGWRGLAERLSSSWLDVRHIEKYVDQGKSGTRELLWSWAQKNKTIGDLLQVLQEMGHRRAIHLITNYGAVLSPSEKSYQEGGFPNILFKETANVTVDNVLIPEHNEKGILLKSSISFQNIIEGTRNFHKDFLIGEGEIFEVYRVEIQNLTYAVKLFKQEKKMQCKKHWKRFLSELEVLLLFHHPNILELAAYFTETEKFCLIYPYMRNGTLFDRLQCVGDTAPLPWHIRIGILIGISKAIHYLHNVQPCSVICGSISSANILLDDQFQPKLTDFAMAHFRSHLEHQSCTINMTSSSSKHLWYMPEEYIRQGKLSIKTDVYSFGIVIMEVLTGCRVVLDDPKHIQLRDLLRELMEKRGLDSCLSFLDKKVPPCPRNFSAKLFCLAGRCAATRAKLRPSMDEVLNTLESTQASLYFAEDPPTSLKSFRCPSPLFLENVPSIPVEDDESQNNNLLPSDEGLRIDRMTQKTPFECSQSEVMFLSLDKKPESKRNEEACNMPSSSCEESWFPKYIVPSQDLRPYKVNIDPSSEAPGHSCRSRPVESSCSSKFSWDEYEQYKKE

[2] = target: Serine/threonine-protein kinase PAK 6 (Homo sapiens) (UniProt Q9NQU5); conditions: at 10 µM
Sequence of Serine/threonine-protein kinase PAK 6 (Homo sapiens) (Q9NQU5 whole entry, looked up): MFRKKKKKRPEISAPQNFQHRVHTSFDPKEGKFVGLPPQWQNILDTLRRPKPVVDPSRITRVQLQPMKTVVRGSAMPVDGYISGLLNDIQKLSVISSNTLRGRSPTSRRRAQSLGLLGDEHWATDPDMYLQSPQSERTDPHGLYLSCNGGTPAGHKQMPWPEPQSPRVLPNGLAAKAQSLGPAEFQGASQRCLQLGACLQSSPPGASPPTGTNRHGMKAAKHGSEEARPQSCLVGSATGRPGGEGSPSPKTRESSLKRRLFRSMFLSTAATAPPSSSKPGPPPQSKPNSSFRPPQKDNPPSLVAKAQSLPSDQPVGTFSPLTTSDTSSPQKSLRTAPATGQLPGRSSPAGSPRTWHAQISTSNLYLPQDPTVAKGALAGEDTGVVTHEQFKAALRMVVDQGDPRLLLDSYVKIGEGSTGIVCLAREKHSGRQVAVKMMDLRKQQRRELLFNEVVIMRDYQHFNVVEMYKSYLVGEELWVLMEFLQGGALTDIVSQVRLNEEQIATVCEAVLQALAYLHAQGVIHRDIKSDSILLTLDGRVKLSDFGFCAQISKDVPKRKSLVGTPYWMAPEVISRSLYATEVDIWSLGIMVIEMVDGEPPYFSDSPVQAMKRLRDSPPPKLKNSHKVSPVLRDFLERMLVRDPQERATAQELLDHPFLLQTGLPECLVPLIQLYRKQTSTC

[3] = target: T2, Aurora kinase A (Homo sapiens) (UniProt O14965); assay: Selectivity interaction (ActivX KiNativ screen (kinase selectivity in THP-1 cell lysates)) EUB0000639a STK6; assay type: subcellular; conditions: lysate
T2 sequence (whole entry): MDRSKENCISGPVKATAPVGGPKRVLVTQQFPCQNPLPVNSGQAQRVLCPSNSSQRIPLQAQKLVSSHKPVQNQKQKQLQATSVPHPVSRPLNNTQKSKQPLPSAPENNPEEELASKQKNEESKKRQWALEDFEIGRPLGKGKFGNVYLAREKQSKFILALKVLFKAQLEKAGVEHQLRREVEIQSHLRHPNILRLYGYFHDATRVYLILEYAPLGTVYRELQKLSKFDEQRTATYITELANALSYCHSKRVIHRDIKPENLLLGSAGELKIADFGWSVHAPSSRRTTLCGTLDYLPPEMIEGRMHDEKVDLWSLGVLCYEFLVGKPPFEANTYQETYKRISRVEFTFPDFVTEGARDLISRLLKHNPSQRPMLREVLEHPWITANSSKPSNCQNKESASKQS

[4] = target: Mitogen-activated protein kinase 4 (Homo sapiens) (UniProt P31152); assay: Selectivity interaction (KinomeScan (DiscoverX)) EUB0000666a MAPK4; conditions: at 10 µM
Sequence of Mitogen-activated protein kinase 4 (Homo sapiens) (P31152 whole entry): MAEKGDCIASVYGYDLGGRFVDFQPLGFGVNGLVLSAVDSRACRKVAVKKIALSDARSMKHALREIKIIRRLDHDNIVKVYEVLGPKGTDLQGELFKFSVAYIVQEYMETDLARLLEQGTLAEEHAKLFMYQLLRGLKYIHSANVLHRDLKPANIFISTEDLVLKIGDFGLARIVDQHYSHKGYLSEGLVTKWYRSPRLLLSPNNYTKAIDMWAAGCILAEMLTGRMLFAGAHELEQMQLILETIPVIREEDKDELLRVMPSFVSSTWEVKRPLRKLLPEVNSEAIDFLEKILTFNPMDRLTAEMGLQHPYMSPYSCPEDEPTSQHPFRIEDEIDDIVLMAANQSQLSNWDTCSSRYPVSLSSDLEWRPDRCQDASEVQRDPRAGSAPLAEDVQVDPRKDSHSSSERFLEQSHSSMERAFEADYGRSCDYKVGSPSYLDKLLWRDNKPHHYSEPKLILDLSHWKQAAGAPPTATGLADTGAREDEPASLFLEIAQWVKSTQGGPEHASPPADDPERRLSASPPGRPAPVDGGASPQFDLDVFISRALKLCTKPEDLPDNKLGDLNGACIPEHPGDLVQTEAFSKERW

[5] = target: T3, Myosin light chain kinase family member 4 (Homo sapiens) (UniProt Q86YV6); assay: Selectivity interaction (KinomeScan (DiscoverX)) EUB0000092b MYLK4; conditions: at 10 µM
T3 sequence (whole entry): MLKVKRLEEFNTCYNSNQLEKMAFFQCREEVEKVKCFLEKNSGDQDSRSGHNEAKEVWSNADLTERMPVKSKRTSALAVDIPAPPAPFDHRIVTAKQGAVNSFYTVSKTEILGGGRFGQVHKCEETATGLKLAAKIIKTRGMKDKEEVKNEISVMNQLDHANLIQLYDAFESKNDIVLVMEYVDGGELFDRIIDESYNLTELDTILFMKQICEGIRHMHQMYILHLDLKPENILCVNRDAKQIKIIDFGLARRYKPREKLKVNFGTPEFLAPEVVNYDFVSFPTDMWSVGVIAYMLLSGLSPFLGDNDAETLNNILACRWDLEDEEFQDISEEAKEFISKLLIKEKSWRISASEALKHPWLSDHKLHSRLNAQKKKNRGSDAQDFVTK

[6] = target: T4, Myosin light chain kinase (Homo sapiens) (UniProt Q32MK0); assay: Selectivity interaction (KinomeScan (DiscoverX)) EUB0000695a MYLK3; conditions: at 100 nM
T4 sequence (whole entry): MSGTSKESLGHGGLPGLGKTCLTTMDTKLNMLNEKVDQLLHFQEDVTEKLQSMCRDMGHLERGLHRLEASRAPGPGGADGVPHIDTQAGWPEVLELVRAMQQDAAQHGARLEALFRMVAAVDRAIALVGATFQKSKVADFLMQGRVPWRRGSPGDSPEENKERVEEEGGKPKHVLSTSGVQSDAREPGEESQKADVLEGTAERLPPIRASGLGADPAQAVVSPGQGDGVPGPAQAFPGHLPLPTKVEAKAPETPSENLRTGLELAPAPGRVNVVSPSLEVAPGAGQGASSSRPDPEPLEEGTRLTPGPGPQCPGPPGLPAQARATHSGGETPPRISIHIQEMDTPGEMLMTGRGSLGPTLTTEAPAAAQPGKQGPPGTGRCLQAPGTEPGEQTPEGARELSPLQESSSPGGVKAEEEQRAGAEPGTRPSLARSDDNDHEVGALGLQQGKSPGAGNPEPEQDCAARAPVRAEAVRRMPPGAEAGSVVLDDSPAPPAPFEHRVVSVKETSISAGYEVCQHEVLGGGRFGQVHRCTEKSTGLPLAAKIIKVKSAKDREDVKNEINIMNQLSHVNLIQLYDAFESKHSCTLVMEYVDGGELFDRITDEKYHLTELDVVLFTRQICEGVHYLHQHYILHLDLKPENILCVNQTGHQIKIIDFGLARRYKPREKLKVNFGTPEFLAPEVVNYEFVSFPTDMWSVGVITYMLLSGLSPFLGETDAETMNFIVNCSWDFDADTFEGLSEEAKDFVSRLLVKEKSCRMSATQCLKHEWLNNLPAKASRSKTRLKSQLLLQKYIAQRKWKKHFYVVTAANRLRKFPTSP

## N#Cc1cccc(-c2c[nH]c3ncnc(N4CCOCC4)c23)c1
[1]
  % of control: 74%

## Cc1cc([C@@H](C)Nc2ccccc2C(=O)O)c2nc(N3CCOCC3)cc(=O)n2c1 [AZD-6482]
[2]
  % of control: 99%

## CC[C@@H]1[C@H](F)C(=O)N[C@@H]1COc1nccc2cc(C(N)=O)c(OC)cc12 [ZIMLOVISERTIB]
[3]; at 0.01 µM
  % of inhibition: -0.7%
[3]; at 0.04 µM
  % of inhibition: -2.4%
[3]; at 0.2 µM
  % of inhibition: 2.8%
[3]; at 1 µM
  % of inhibition: 26.7%
[3]; at 5 µM
  % of inhibition: 59.9%

## O=C(NOC[C@H](O)CO)c1ccc(F)c(F)c1Nc1ccc(I)cc1F
[4]
  % of control: 77%

## CCC(=O)N1CCN(c2ccc(-n3c(=O)ccc4cnc5ccc(-c6cnc7ccccc7c6)cc5c43)cc2C(F)(F)F)CC1
[5]
  % of control: 83%

## Cc1cc(F)c(C(=O)Nc2cccc(-c3nncn3C(C)C)n2)cc1-n1cnc(C2CC2)c1
[6]
  % of control: 100%

Reference: ChEMBL document CHEMBL5465560, “Selectivity Literature for EUbOPEN Chemogenomic Library” (2024)
